In the assay the target is Transmembrane protease serine 2 (Homo sapiens, UniProt O15393). In words: titration assay. An excerpt: To identify inhibitors of TMPRSS2 that may be used directly in clinical studies or as lead compounds to develop targeted drugs, we screened several chemical libraries with active TMPRSS2 protease, the […] TMPRSS2 peptide substrate Boc-Gln-Ala-Arg-MCA, and compound concentrations of 5 μmol/L. We have used a similar approach to identify inhibitors of the hepsin protease.
Sequence of Transmembrane protease serine 2 (O15393 1-255 limits assumed): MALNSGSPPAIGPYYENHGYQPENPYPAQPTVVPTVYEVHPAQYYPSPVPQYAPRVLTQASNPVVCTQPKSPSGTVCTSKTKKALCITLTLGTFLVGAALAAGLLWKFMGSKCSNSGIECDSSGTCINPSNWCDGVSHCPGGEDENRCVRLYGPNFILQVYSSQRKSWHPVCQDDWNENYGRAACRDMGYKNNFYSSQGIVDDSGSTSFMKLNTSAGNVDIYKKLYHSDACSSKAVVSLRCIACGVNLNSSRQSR
Sequence of Transmembrane protease serine 2 (O15393 256-492 limits assumed): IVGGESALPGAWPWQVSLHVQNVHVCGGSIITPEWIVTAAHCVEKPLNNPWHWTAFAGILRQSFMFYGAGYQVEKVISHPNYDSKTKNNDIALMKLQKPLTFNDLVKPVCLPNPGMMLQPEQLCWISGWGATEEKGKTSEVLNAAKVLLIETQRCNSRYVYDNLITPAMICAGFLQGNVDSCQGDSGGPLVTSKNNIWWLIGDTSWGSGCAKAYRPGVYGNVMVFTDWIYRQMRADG

As for `CN(Cc1cc(Br)cc(Br)c1N)C1CCCCC1` [Bromhexine], it took 750 nM to reach half-maximal inhibition (IC50).
In the case of `COC(=O)Cc1cc(=O)oc2cc(O)ccc12` it was 1370 nM; in that of `COC(=O)c1ccc(OC(=O)c2cccs2)cc1` [0591-5329], 930 nM; in that of `CCn1c(-c2ccc(Cl)cc2)csc1=Nc1ccccc1` [8008-1235], 2640 nM.
The compound `CCN1CCn2c3c(c4cc(Br)ccc42)CCCC31` (stereo not given) [4401-0077] showed an IC50 of 2680 nM.

A word on the IC50: it is the concentration that gives 50% inhibition.

The values above are taken from BindingDB's records for doi:10.1158/2159-8290.CD-13-1010 (Fred Hutchinson Cancer Research Center, 2014).
